Results on 9 molecules are retold here after patent publication US5441985A, “Treatment of lower urinary tract disorders with selective norepinephrine uptake inhibitors” (priority 1993, dated 1995).

One may read the pIC50 as the negative decadic logarithm of the IC50, by convention in mol/L.

One series deals with nocturnal enuresis. As to conditions: cited from earlier work; for effectiveness in treating nocturnal enuresis: human, in vivo.
The subject of series [1] is rat urinary bladder strips. As to conditions: cited from earlier work.
A further series concerns rabbit bladder. Particulars: cited from earlier work.
The subject of series [2] is guinea pig bladder muscle strips. As to conditions: guinea pig bladder muscle strips in vitro; cited from earlier work.
In series [3] the target is cholinergic receptors. As to conditions: read-out: IC50 for displacement of tritiated-quinuclidinol benzoate (QNB) binding, cited from earlier work.
Another series deals with rabbit detrusor strips. Particulars: rabbit detrusor strips in vitro; cited from earlier work.
The next series has as its system human bladder strips. As to conditions: cited from earlier work.
The subject of another series is frog sciatic nerves. As to conditions: frog sciatic nerves in vitro; cited from earlier work.
The next series deals with urethra. Particulars: female dogs; cited from earlier work.
The next series concerns guinea pig bladder. As to conditions: guinea pig strips in vitro and cystometrogram in vivo; cited from earlier work.
In series [4] the test system is rabbit bladder strips. As to conditions: in the presence of imipramine; cited from earlier work.
A further series has as its system dog bladder and urethra. As to conditions: cited from earlier work.
In series [5] the test system is dog bladder strips. As to conditions: cited from earlier work.
In a further series the test system is micturition reflex. As to conditions: cited from earlier work.
The test system of series [6] is dog bladder muscle strips. Particulars: cited from earlier work.
Series [7] has as its system rabbit bladder strips. As to conditions: cited from earlier work.
In a further series the test system is stress incontinence. As to conditions: women with stress incontinence; cited from earlier work.
The test system of series [8] is dog urethra and bladder fragments. The series is described as follows: NE release in dog urethra and bladder fragments in vitro.
A further series deals with cat bladder. As to conditions: in vivo; cited from earlier work.
Series [9] relates to dog bladder strips. As to conditions: cited from earlier work. This is another data set of the same source.
The conditions of series [10]: children under 5 years of age; cited from earlier work.
The nature of series [11]: clinical evaluation as potential treatments for depression, side effects.
For series [12], the system named is rabbit urethra and bladder fragments. The series is described as follows: NE release in rabbit urethra and bladder fragments in vitro.
The test system of series [13] is bladder. As to conditions: female dogs; cited from earlier work.
For series [14], the system named is muscarinic presynaptic receptors. Particulars: rat bladder tissue in vitro; cited from earlier work.
The conditions of series [15]: human, in vivo.
A further series deals with rat bladder tissue. The series is described as follows: relaxation of rat bladder tissue to NE.
Series [16] has as its system bladder. The series is described as follows: bladder function in the cat. Format: in vivo.
A further series has as its system rat urethral tissue. Description: contractile response of rat urethral tissue to NE.
Series [17] has as its target cholinergic receptors. The series is described as follows: 3H-QNB ligand displacement assay (in vitro anti-cholinergic assay). As to conditions: 3H-QNB displacement; read-out: anticholinergic IC50. Format: binding.

pIC50: −log10 of the molar value. Where two headings read alike, the source gives them in different places.

Turning to `CN(C)CCC=C1c2ccccc2CCc2ccccc21` [amitriptyline], in the series on nocturnal enuresis, the “effectiveness in treating nocturnal enuresis” value is reported as “effective”. Also, the “contractile response to electrical stimulation” value in series [1] is “suppressed the contractile response”.
For the molecule `CN1[C@@H]2CC[C@H]1C[C@@H](OC(=O)C(CO)c1ccccc1)C2` (some centres unmarked) [atropine], in the series on rabbit bladder (rabbit bladder organ bath), the “suppression/inhibition of field stimulated contraction” value (from here on “suppression/inhibition”) is on record as 30% and the “suppression/relaxation of bethanechol-induced contraction” value (shortened to “suppression/relaxation”) is 70%. Moreover, in series [2], the potassium-induced contraction entry is recorded as “not effect at high concentration”. The pIC50 at cholinergic receptors [3] is 4.28.
For the molecule `CNCCCN1c2ccccc2CCc2ccccc21` [desipramine], the “effectiveness in treating nocturnal enuresis” value in the series with nocturnal enuresis is on record as “effective”. Further, the “contractile response to electrical stimulation” value in series [1] is “suppressed the contractile response”.
As to `CN(C)CCCN1c2ccccc2CCc2ccccc21` [imipramine], the “carbamylcholine and barium chloride-induced contractions” value in the series on rabbit detrusor strips is recorded as “antagonize”. Also, the “contractile responses to acetylcholine (ACH)” value (from here on “contractile responses … (ACH)”) with human bladder strips was “block in vitro contractile responses”. The impulse conduction result in the series on frog sciatic nerves is on record as “block the impulse conduction”. For the same molecule, the urethral pressure entry in the series with urethra is “increase urethral pressure”. Further, the activity on bladder entry in the series with guinea pig bladder is “anticholinergic, antispasmodic, and local anesthetic activity”. In addition, in the series with nocturnal enuresis (following treatment), the “further patients with improvements” value is 15-20% and the “patients with enuresis cured” value is “over 50%”. In the series on rabbit bladder (rabbit bladder organ bath), the “suppression/inhibition” value is given as 50% and the “suppression/relaxation” value is 50%. Besides, in the series with rabbit bladder strips [4], the “effectiveness of calcium to augment bethanechol-induced contraction” value was “decreased effectiveness of calcium”. Besides, the “bladder and urethral pressure responses to pelvic nerve stimulation and other stimuli” value in the series with dog bladder and urethra was “reduce dog bladder and urethral pressure responses”. Further, the potassium-induced contraction entry in series [2] is “suppression of potassium-induced contraction”. Also, the “contractile responses to barium chloride” value in the series on dog bladder strips [5] was “suppressed contractile responses to barium chloride”. The musculotropic relaxant effect result with dog bladder strips [5] (compared with flavoxate) was “more potent than that of flavoxate”. Further, the “cholinergic contractile responses induced by bethanechol” value in the series with dog bladder strips [5] (dog bladder strips) is given as “suppressed cholinergic contractile responses”. Further, in the series on micturition reflex (acute administration), the “supraspinal reflex or myogenic activity of bladder” value is “no effect” and the “threshold for activating the bladder-spinal-bladder (vesicovesical) micturition reflex” value is given as “increased the threshold”. Further, in the series with micturition reflex (repeated administration), the “threshold for supraspinal reflex” value was “increased threshold for supraspinal reflex”. For the same molecule, the “relaxation effects of norepinephrine” value in [6] (with norepinephrine) was “enhanced the in vitro relaxation effects of norepinephrine”. In addition, in series [6] (without norepinephrine), the “effect on bladder muscle strips alone” value is listed as “no effects alone”. Besides, the “contractile responses … (ACH)” value in the series on rabbit bladder strips [7] is recorded as “block in vitro contractile responses”. Moreover, in the series on stress incontinence, the restoring continence entry is “effective as a single therapy”. Also, the NE release entry in series [8] is “increase NE release”. Further, in the series on cat bladder, the “effects of hypogastric nerve stimulation on bladder relaxation” value is “potentiated the effects of hypogastric nerve stimulation”. Also, the “contractile responses … (ACH)” value in the series with dog bladder strips [9] is “block in vitro contractile responses”. In series [10], the toxicity in children entry is “particularly toxic and potentially lethal in low dosage”. Moreover, in series [11], the noted side effect result is given as “urine retention”. Besides, at cholinergic receptors [3] (bladder homogenates), the pIC50 was 4.89. In addition, the NE release entry in [12] is reported as “increase NE release”. In addition, the “bladder pressure responses to pelvic nerve stimulation” value in the series on bladder [13] is “reduced bladder pressure responses”. Moreover, the “effect on muscarinic presynaptic receptors” value in [14] is “strong antagonistic effect on muscarinic presynaptic receptors”.
As to `CCN(CC)CC(=O)Nc1c(C)cccc1C` [lidocaine], the potassium-induced contraction result in [2] was “not effect at high concentration”.
Consider `CNCCC=C1c2ccccc2CCc2ccccc21` [nortriptyline], for which the “effectiveness in treating nocturnal enuresis” value in the series on nocturnal enuresis is “effective”.
Take `CC(C)[N+](C)(CCOC(=O)C1c2ccccc2Oc2ccccc21)C(C)C` [propantheline]: the pIC50 on cholinergic receptors [3] (bladder homogenates) is 4.53.
For `CNCC[C@@H](Oc1ccccc1C)c1ccccc1` [tomoxetine, (-)-N-methyl-3-(2-methylphenoxy)-3-phenylpropylamine], in [15], the noted side effect entry is “urine retention”; the “side effects such as dry mouth, drowsiness, and dizziness” value was “considerably fewer side effects”. Moreover, the “relaxation of bladder tissue to NE” value in the series on rat bladder tissue was “augment the relaxation”. For the same molecule, in the series with bladder [16], the “amplitude and frequency of contractions” value is “decreasing the amplitude and frequency of contractions”; the bladder capacity entry was “increasing bladder capacity”. The NE release result in series [8] is on record as “increase NE release”. Besides, the “contractile response of urethral tissue to NE” value in the series with rat urethral tissue is “significantly increase the contractile response”. The NE release result in series [12] was “increase NE release”. Besides, the negative logarithm of the IC50 (pIC50) at cholinergic receptors [17] was 4.68.
For the molecule `COc1ccc(CCN(C)CCCC(C#N)(c2ccc(OC)c(OC)c2)C(C)C)cc1OC` (centres unmarked) [verapamil], the “suppression/inhibition” value in the series on rabbit bladder was 81%. In addition, in the series on rabbit bladder (rabbit, bladder), the “suppression/relaxation” value is 85%.
